Experimental data from US10189786B2, “Antibacterial compounds” (Duke University, priority 2013, dated 2019).
In brackets after ≈: the same amount, converted by molar mass.

How the values were obtained:
Type in all cases: cell-based
[1] = test system: E. coli W3110; assay: microbe, parasite or virus in culture; conditions: wild-type E. coli W3110, 22 hours at 37° C., MTT; for MIC: Escherichia coli, W3110, 22 h
[2] = test system: P. aeruginosa PAO1; assay: MIC assay, P. aeruginosa PAO1
[3] = test system: N. gonorrhoeae FA19 (a drug-sensitive strain); assay: Disk diffusion assay, N. gonorrhoeae FA19; conditions: disc 6 mm; for zone of inhibition at 2 µg/disc / zone of inhibition at 0.2 µg/disc / zone of inhibition at 20 µg/disc: Neisseria gonorrhoeae, read-out: diameter of the growth inhibition, FA19
Method: (§1) An assay was performed on two strains of Acinetobacter Baumannii: antibiotic susceptible strain (Sus. A.b. Isolate), and multidrug-resistant strains (MDR A.b. Isolate). […] Activity is measured as the diameter (in mm) of the growth inhibition.

[4] = test system: N. gonorrhoeae 35/02 (drug-resistant strain); assay: Disk diffusion assay, N. gonorrhoeae 35/02; conditions: disc 6 mm; for zone of inhibition at 0.2 µg/disc / zone of inhibition at 2 µg/disc / zone of inhibition at 20 µg/disc: Neisseria gonorrhoeae, read-out: diameter of the growth inhibition, 35/02
Method: as §1

[5] = test system: N. gonorrhoeae F89 (high-level cefixime and ceftriaxone resistance); assay: Disk diffusion assay, N. gonorrhoeae F89; conditions: disc 6 mm; for zone of inhibition at 0.2 µg/disc / zone of inhibition at 2 µg/disc / zone of inhibition at 20 µg/disc: Neisseria gonorrhoeae, read-out: diameter of the growth inhibition, F89
Method: as §1

[6] = test system: N. gonorrhoeae H041; assay: Disk diffusion assay, N. gonorrhoeae H041; conditions: disc 6 mm; for zone of inhibition at 0.2 µg/disc / zone of inhibition at 2 µg/disc / zone of inhibition at 20 µg/disc: Neisseria gonorrhoeae, read-out: diameter of the growth inhibition, H041; for zone of inhibition at 0.2 µg/disc: H041, 0.2 μg per disc; for zone of inhibition at 2 µg/disc: H041, 2.0 μg per disc; for zone of inhibition at 20 µg/disc: H041, 20 μg per disc
Method: as §1

[7] = test system: E. coli W3110PA; assay: microbe, parasite or virus in culture; conditions: Escherichia coli, W3110PA, E. coli with native lpxC replaced by that of P. aeruginosa

## CC(NCCc1ccc(-c2ccccc2)cc1)(C(=O)NO)C(C)(O)C(F)F (stereo not shown) [Example 12, 2-(2-(biphenyl-4-yl)ethylamino)-4,4-difluoro-N,3-dihydroxy-2,3-dimethylbutanamide]
[1]
  MIC: > 40 µg/mL
[2]; Pseudomonas aeruginosa, PAO1, P. aeruginosa PAO1
  MIC: > 40 µg/mL
[3]; 2.0 μg per disc
  zone of inhibition at 2 µg/disc: < 19 mm

## CC(NCCc1ccc(-c2ccccc2)cc1)(C(=O)NO)C(C)(O)C(F)F.Cl (stereo not shown) [Example 136]
[1]
  MIC E. coli W3110: >40 µg/mL
[2]
  MIC P. aeruginosa PAO1: >40 µg/mL

## COc1ccc(-c2ccc(CN[C@H](C(=O)NO)[C@](C)(O)C(F)F)cc2)cc1 [Example 142]
[1]
  MIC: 100 µg/mL (≈ 263 µM)
[3]; 0.2 μg per disc
  zone of inhibition at 0.2 µg/disc: 0 mm
[3]; 2.0 μg per disc
  zone of inhibition at 2 µg/disc: 16 mm
[3]; 20 μg per disc
  zone of inhibition at 20 µg/disc: 21 mm
[4]; 0.2 μg per disc
  zone of inhibition at 0.2 µg/disc: 0 mm
[4]; 2.0 μg per disc
  zone of inhibition at 2 µg/disc: 11 mm
[4]; 20 μg per disc
  zone of inhibition at 20 µg/disc: 20 mm
[5]; 0.2 μg per disc
  zone of inhibition at 0.2 µg/disc: 0 mm
[5]; 2.0 μg per disc
  zone of inhibition at 2 µg/disc: 16 mm
[5]; 20 μg per disc
  zone of inhibition at 20 µg/disc: 24 mm
[6]
  zone of inhibition at 0.2 µg/disc: 0 mm
  zone of inhibition at 2 µg/disc: 8 mm
  zone of inhibition at 20 µg/disc: 17 mm

## Cc1ccc(-c2ccc(CN[C@H](C(=O)NO)[C@](C)(O)C(F)F)s2)s1 [Example 7, (2S,3S)-4,4-difluoro-N,3-dihydroxy-3-methyl-2-((5′-methyl-2,2′-bithiophen-5-yl)methylamino)butanamide]
[1]
  MIC: 50 µg/mL (≈ 133 µM)
[7]
  MIC: 25 µg/mL (≈ 66.4 µM)
[3]; 2.0 μg per disc
  zone of inhibition at 2 µg/disc: 21 mm

## COc1ccc(-c2ccn(CCCNC(C)(C(=O)NO)C(C)(O)CF)c(=O)c2)cc1 (stereo not shown) [Example 140]
[1]
  MIC: 100 µg/mL (≈ 237 µM)
[3]; 2.0 μg per disc
  zone of inhibition at 2 µg/disc: 13 mm
[3]; 20 μg per disc
  zone of inhibition at 20 µg/disc: 22 mm

## CN1CCN(Cc2ccc(-c3ccc(CCCN[C@H](C(=O)NO)[C@](C)(O)C(F)F)cc3)cc2)CC1 [Example 144]
[1]
  MIC: 50 µg/mL (≈ 102 µM)
[3]; 0.2 μg per disc
  zone of inhibition at 0.2 µg/disc: 0 mm
[3]; 2.0 μg per disc
  zone of inhibition at 2 µg/disc: 0 mm
[3]; 20 μg per disc
  zone of inhibition at 20 µg/disc: 0 mm
[4]; 0.2 μg per disc
  zone of inhibition at 0.2 µg/disc: 0 mm
[4]; 2.0 μg per disc
  zone of inhibition at 2 µg/disc: 0 mm
[4]; 20 μg per disc
  zone of inhibition at 20 µg/disc: 0 mm
[5]; 0.2 μg per disc
  zone of inhibition at 0.2 µg/disc: 0 mm
[5]; 2.0 μg per disc
  zone of inhibition at 2 µg/disc: 0 mm
[5]; 20 μg per disc
  zone of inhibition at 20 µg/disc: 0 mm
[6]
  zone of inhibition at 0.2 µg/disc: 0 mm
  zone of inhibition at 2 µg/disc: 0 mm
  zone of inhibition at 20 µg/disc: 0 mm

## C[C@@](O)(C(F)F)[C@H](NCc1ccc2cc(-c3ccccc3)ccc2c1)C(=O)NO [Example 149]
[3]; 0.2 μg per disc
  zone of inhibition at 0.2 µg/disc: 15 mm
[3]; 2.0 μg per disc
  zone of inhibition at 2 µg/disc: 22 mm
[3]; 20 μg per disc
  zone of inhibition at 20 µg/disc: 26 mm
[4]; 0.2 μg per disc
  zone of inhibition at 0.2 µg/disc: 11 mm
[4]; 2.0 μg per disc
  zone of inhibition at 2 µg/disc: 22 mm
[4]; 20 μg per disc
  zone of inhibition at 20 µg/disc: 25 mm
[5]; 0.2 μg per disc
  zone of inhibition at 0.2 µg/disc: 19 mm
[5]; 2.0 μg per disc
  zone of inhibition at 2 µg/disc: 24 mm
[5]; 20 μg per disc
  zone of inhibition at 20 µg/disc: 30 mm
[6]
  zone of inhibition at 0.2 µg/disc: 10 mm
  zone of inhibition at 2 µg/disc: 24 mm
  zone of inhibition at 20 µg/disc: 27 mm

## C[C@@](O)(C(F)F)[C@H](NCc1ccc(-c2ccc(OCCN3CCOCC3)cc2)cc1)C(=O)NO [Example 145]
[1]
  MIC: 25 µg/mL (≈ 52.1 µM)
[3]; 0.2 μg per disc
  zone of inhibition at 0.2 µg/disc: 0 mm
[3]; 2.0 μg per disc
  zone of inhibition at 2 µg/disc: 0 mm
[3]; 20 μg per disc
  zone of inhibition at 20 µg/disc: 14 mm
[4]; 0.2 μg per disc
  zone of inhibition at 0.2 µg/disc: 0 mm
[4]; 2.0 μg per disc
  zone of inhibition at 2 µg/disc: 0 mm
[4]; 20 μg per disc
  zone of inhibition at 20 µg/disc: 12 mm
[5]; 0.2 μg per disc
  zone of inhibition at 0.2 µg/disc: 0 mm
[5]; 2.0 μg per disc
  zone of inhibition at 2 µg/disc: 7 mm
[5]; 20 μg per disc
  zone of inhibition at 20 µg/disc: 21 mm
[6]
  zone of inhibition at 0.2 µg/disc: 0 mm
  zone of inhibition at 2 µg/disc: 7 mm
  zone of inhibition at 20 µg/disc: 11 mm

## CC(NCCCc1ccc(-c2ccccc2)cc1)(C(=O)NO)C(C)(O)C(F)F.Cl (single isomer, unassigned) [Example 135]
[1]
  MIC E. coli W3110: 10 µg/mL
[2]
  MIC P. aeruginosa PAO1: 20 µg/mL
[3]; 0.2 μg per disc
  diameter of the growth inhibition, FA19: 8 mm
[3]; 2.0 μg per disc
  diameter of the growth inhibition, FA19: 19 mm
[3]; 20 μg per disc
  diameter of the growth inhibition, FA19: 26 mm
[4]; 0.2 μg per disc
  diameter of the growth inhibition, 35/02: 8 mm
[4]; 2.0 μg per disc
  diameter of the growth inhibition, 35/02: 14 mm
[4]; 20 μg per disc
  diameter of the growth inhibition, 35/02: 19 mm
[5]; 0.2 μg per disc
  diameter of the growth inhibition, F89: 15 mm
[5]; 2.0 μg per disc
  diameter of the growth inhibition, F89: 27 mm
[5]; 20 μg per disc
  diameter of the growth inhibition, F89: 30 mm
[6]; 0.2 μg per disc
  diameter of the growth inhibition, H041: 8 mm
[6]; 2.0 μg per disc
  diameter of the growth inhibition, H041: 14 mm
[6]; 20 μg per disc
  diameter of the growth inhibition, H041: 23 mm
